Assay results taken from patent US20200246352A1, “Vanadyl and vanadate for use in reducing stress-induced metabolic derangement” (CFM Pharma Holding B.V., priority 2017, published 2020).
“And” between values parts separate entries of the source, which are not always exact repeats. Equal values may be shown once. Read-outs that look alike come from different tables or passages of the source.

Tested on: healthy male Wistar rats
Settings: for Effect of adrenaline infusion on blood glucose level: 0.1, 0.3 or 1 μg/kg/min infusion for 180 min; for Blood glucose levels, individual animals in duplicate: medium adrenaline dose (MA) 0.3 μg/kg/min
Method: In the first part of the study (Table 1, Table 3, series 1), thirteen (13) healthy male Wistar rats were anesthetized by intraperitoneal (ip.) injection of thiopental (Tiobarbital 0.5 g, Braun Medical SA) after 12 hours of fasting.

CNCC(O)c1ccc(O)c(O)c1 (stereo not shown) [adrenaline] was tested, and the “Effect of adrenaline infusion on blood glucose level” value was “inflicts hyperglycemic state in an adrenaline dose dependent manner”, the “Effect of adrenaline infusion on blood glucose level” value (listed as Adrenaline) was “dose-dependent continuous increase in blood glucose level” and the “Blood glucose level, mean” value (high dose 1 μg/kg/min infusion, 0 min (before infusion)) was 5.39 mM/l. For the same compound, the “Blood glucose level, mean” value (high dose 1 μg/kg/min infusion, 15 min) was 5.46 mM/l, the “Blood glucose level, mean” value (high dose 1 μg/kg/min infusion, 30 min) was 5.69 mM/l and the “Blood glucose level, mean” value (high dose 1 μg/kg/min infusion, 45 min) was 6.62 mM/l. For the same compound, the “Blood glucose level, mean” value (high dose 1 μg/kg/min infusion, 60 min) was 7.93 mM/l, the “Blood glucose level, mean” value (high dose 1 μg/kg/min infusion, 90 min) was 10.95 mM/l and the “Blood glucose level, mean” value (high dose 1 μg/kg/min infusion, 120 min) was 13.25 mM/l. For the same compound, the “Blood glucose level, mean” value (high dose 1 μg/kg/min infusion, 150 min) was 13.65 mM/l, the “Blood glucose level, mean” value (high dose 1 μg/kg/min infusion, 180 min) was 13.81 mM/l and the “Time of peak blood glucose level after start of infusion” value (highest dose 1 μg/kg/min) was “around 120 min”. The “Blood glucose level, mean” value (low dose 0.1 μg/kg/min infusion, 0 min (before infusion)) was 5.09 mM/l, the “Blood glucose level, mean” value (low dose 0.1 μg/kg/min infusion, 15 min) was 5.31 mM/l and the “Blood glucose level, mean” value (low dose 0.1 μg/kg/min infusion, 30 min) was 5.26 mM/l. The “Blood glucose level, mean” value (low dose 0.1 μg/kg/min infusion, 45 min) was 5.18 mM/l, the “Blood glucose level, mean” value (low dose 0.1 μg/kg/min infusion, 60 min) was 5.70 mM/l and the “Blood glucose level, mean” value (low dose 0.1 μg/kg/min infusion, 90 min) was 6.16 mM/l. The “Blood glucose level, mean” value (low dose 0.1 μg/kg/min infusion, 120 min) was 7.09 mM/l, the “Blood glucose level, mean” value (low dose 0.1 μg/kg/min infusion, 150 min) was 7.89 mM/l and the “Blood glucose level, mean” value (low dose 0.1 μg/kg/min infusion, 180 min) was 8.34 mM/l. The “Blood glucose levels, individual animals in duplicate” value (“Blood glucose levels” for short) (30 min) was 6.0 mM/l (2×) and 5.9 mM/l, the “Blood glucose levels” value (45 min) was 4.7 mM/l and 4.3 mM/l and 5.7 mM/l and the “Blood glucose levels” value (60 min) was 6.4 mM/l (2×) and 6.7 mM/l. For the same compound, the “Blood glucose levels” value (90 min) was 6.0 mM/l and 7.4 mM/l and 9.5 mM/l, the “Blood glucose levels” value (120 min) was 8.7 mM/l and 8.9 mM/l and 11.7 mM/l and the “Blood glucose levels” value (150 min) was 7.5 mM/l and 7.1 mM/l and 12.8 mM/l. For the same compound, the “Blood glucose levels” value (180 min) was 5.3 mM/l (2×) and 13.2 mM/l, the “Blood glucose level, mean” value (medium dose 0.3 μg/kg/min infusion, 0 min (before infusion)) was 5.53 mM/l and the “Blood glucose level, mean” value (medium dose 0.3 μg/kg/min infusion, 15 min) was 6.45 mM/l. The “Blood glucose level, mean” value (medium dose 0.3 μg/kg/min infusion, 30 min) was 6.36 mM/l, the “Blood glucose level, mean” value (medium dose 0.3 μg/kg/min infusion, 45 min) was 6.34 mM/l and the “Blood glucose level, mean” value (medium dose 0.3 μg/kg/min infusion, 60 min) was 7.85 mM/l. The “Blood glucose level, mean” value (medium dose 0.3 μg/kg/min infusion, 90 min) was 10.15 mM/l, the “Blood glucose level, mean” value (medium dose 0.3 μg/kg/min infusion, 120 min) was 11.36 mM/l and the “Blood glucose level, mean” value (medium dose 0.3 μg/kg/min infusion, 150 min) was 10.96 mM/l. For the same compound, the “Blood glucose level, mean” value (medium dose 0.3 μg/kg/min infusion, 180 min) was 10.19 mM/l.
